Values belong to the compound of their own block, whether it stands above or below them.
Key:
Conditions in all cases: binder
JNK3 = JNK3 (Homo sapiens, UniProt P53779)
DMPK1 = molecular target: T1, DMPK1 (Homo sapiens, UniProt Q09013)
T1 sequence (Q09013 1-629): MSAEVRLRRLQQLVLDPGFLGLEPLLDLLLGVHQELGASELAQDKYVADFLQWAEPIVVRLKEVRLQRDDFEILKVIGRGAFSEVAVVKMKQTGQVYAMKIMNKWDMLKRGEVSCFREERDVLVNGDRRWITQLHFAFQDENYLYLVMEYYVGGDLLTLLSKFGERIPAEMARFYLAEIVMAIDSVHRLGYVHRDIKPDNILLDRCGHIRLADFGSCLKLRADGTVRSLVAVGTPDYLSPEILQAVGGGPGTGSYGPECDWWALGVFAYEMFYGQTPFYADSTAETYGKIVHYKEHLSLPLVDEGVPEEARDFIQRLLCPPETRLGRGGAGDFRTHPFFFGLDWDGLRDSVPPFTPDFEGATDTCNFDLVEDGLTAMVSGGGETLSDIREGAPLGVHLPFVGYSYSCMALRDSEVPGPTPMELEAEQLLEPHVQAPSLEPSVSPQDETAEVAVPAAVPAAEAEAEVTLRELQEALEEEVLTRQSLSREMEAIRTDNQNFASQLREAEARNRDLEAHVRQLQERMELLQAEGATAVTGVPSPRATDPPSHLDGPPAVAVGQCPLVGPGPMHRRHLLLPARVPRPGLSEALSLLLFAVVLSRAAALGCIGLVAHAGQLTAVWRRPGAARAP

DAPK3 = DAPK3 (Homo sapiens, UniProt O43293)
EphA5 = EphA5 (Homo sapiens, UniProt P54756)
NEK1 = molecular target: T2, NEK1 (Homo sapiens, UniProt Q96PY6)
T2 sequence (Q96PY6 1-1258): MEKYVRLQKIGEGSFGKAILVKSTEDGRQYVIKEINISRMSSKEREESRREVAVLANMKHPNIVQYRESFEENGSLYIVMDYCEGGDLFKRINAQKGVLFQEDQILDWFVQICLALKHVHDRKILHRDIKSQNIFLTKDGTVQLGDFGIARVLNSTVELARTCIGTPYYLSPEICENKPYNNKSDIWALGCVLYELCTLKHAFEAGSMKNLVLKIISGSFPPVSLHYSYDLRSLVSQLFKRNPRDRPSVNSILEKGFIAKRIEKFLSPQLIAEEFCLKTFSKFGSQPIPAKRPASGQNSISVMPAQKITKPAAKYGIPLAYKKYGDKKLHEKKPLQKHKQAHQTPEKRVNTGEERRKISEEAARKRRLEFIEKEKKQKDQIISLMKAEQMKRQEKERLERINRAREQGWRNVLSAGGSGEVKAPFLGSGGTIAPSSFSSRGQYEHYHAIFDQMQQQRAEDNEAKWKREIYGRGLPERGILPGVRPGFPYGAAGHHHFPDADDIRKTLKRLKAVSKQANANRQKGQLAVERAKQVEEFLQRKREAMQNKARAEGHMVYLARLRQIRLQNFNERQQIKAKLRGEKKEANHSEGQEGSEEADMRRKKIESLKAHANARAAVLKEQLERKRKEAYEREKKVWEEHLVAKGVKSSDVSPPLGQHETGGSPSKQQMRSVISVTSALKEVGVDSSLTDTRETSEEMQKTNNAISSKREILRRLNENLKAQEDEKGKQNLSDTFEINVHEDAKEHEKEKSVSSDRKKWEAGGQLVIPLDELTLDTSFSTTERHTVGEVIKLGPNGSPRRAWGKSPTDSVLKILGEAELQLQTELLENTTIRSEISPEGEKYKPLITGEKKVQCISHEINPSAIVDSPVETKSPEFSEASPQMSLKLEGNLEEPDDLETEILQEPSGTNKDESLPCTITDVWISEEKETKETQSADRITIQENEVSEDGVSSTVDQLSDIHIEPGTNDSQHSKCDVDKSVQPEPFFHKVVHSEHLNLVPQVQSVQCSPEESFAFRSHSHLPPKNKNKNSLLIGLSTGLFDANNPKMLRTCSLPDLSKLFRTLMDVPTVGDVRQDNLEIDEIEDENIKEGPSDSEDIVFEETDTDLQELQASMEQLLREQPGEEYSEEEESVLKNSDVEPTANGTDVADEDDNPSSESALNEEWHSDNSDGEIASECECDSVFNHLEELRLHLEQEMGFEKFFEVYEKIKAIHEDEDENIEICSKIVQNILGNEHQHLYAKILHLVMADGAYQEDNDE

CDKL1 = CDKL1 (Homo sapiens, UniProt Q00532)
BRAF = BRAF (Homo sapiens, UniProt P15056)
MST2 = molecular target: T3, MST2 (Homo sapiens, UniProt Q13188)
T3 sequence (Q13188 1-491): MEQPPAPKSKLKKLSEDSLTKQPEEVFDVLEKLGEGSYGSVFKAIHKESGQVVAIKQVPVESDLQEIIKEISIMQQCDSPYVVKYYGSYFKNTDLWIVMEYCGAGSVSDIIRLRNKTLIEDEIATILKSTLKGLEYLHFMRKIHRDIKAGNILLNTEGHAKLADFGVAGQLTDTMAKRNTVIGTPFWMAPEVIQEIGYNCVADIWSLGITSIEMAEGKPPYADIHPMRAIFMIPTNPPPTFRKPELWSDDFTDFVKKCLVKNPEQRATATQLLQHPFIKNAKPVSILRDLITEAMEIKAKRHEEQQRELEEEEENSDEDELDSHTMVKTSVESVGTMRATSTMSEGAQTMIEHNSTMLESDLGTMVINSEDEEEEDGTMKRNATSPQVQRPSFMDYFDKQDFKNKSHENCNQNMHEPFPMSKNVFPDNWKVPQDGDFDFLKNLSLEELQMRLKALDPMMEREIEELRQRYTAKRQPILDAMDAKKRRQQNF

MST4 = MST4 (Homo sapiens, UniProt Q9P289)
Sequence of MST4 (Q9P289 whole entry): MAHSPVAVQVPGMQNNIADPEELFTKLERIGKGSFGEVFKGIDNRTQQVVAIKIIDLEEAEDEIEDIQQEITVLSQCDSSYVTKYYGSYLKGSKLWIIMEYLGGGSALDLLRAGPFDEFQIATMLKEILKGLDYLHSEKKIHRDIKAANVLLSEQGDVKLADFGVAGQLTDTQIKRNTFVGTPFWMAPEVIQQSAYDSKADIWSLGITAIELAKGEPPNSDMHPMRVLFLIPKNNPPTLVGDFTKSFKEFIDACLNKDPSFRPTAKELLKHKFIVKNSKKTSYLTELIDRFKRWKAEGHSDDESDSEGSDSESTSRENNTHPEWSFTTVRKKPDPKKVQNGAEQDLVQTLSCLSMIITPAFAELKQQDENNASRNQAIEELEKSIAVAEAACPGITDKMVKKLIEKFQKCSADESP

Sequence of CDKL1 (Q00532 whole entry): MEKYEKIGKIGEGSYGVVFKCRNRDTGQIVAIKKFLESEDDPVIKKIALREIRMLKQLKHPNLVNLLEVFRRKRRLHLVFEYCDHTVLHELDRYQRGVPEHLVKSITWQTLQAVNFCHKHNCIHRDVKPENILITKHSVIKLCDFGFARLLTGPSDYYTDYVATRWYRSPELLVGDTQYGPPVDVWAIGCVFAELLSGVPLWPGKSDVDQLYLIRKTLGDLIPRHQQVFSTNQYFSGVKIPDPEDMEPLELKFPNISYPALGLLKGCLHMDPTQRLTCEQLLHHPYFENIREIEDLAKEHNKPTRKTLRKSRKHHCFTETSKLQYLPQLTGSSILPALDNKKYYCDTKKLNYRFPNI
Sequence of EphA5 (P54756 whole entry): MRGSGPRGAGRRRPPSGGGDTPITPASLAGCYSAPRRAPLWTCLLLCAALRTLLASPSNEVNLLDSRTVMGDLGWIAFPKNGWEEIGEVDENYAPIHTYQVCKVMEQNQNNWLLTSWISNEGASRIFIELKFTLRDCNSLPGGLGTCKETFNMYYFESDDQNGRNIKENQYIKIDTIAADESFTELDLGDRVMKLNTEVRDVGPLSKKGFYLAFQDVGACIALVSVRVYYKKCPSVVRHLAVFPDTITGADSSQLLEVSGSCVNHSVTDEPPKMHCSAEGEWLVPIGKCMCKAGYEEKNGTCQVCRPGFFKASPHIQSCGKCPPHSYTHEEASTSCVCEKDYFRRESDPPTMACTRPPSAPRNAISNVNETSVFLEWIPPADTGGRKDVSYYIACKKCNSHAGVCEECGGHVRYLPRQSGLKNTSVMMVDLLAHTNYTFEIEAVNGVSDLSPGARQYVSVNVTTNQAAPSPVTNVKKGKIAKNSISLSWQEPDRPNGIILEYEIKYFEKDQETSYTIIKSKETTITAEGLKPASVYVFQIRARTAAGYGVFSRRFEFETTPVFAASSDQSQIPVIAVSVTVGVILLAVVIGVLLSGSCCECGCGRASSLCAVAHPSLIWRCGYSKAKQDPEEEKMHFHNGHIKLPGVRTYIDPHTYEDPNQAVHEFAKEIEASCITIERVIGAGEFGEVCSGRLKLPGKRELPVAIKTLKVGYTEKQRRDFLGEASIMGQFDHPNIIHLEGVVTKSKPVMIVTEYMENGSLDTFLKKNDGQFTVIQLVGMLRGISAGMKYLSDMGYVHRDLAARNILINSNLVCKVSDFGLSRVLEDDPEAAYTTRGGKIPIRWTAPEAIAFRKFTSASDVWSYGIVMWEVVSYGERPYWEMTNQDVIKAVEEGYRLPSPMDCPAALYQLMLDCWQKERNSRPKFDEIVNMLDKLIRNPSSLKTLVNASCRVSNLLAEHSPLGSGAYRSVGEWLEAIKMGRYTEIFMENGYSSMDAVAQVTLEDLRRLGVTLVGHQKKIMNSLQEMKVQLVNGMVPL
Sequence of JNK3 (P53779 whole entry): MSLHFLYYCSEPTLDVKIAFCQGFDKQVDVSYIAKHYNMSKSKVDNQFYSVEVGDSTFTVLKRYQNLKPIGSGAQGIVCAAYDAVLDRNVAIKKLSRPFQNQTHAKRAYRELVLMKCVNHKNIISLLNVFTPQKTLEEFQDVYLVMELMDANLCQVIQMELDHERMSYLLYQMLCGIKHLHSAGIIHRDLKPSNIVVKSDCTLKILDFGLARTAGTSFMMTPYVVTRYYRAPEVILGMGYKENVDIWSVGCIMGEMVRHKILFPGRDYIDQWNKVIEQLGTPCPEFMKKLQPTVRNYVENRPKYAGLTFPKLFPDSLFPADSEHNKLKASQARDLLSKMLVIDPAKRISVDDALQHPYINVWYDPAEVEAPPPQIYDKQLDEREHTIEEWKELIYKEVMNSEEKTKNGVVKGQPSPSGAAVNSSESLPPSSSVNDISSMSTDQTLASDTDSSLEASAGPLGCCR
Sequence of BRAF (P15056 whole entry): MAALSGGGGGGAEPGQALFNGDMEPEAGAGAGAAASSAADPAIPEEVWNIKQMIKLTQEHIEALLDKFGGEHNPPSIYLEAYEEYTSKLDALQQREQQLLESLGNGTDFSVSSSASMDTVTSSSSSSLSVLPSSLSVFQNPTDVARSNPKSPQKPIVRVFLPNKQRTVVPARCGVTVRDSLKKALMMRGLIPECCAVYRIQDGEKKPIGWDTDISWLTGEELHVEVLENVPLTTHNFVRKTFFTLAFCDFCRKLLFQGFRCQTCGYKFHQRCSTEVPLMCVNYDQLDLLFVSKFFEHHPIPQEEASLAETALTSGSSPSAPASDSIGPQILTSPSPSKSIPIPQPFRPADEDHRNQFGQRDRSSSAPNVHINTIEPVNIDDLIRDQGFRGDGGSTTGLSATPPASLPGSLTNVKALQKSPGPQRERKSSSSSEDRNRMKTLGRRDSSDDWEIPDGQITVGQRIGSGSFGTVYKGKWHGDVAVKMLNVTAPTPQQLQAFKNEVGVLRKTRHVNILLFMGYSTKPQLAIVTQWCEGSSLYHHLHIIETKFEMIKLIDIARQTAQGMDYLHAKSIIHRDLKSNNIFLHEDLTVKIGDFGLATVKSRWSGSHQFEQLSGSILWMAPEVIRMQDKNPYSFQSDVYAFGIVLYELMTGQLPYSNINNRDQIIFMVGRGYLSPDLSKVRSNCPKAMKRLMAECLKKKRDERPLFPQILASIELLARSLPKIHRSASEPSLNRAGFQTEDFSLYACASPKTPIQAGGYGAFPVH
Sequence of DAPK3 (O43293 whole entry): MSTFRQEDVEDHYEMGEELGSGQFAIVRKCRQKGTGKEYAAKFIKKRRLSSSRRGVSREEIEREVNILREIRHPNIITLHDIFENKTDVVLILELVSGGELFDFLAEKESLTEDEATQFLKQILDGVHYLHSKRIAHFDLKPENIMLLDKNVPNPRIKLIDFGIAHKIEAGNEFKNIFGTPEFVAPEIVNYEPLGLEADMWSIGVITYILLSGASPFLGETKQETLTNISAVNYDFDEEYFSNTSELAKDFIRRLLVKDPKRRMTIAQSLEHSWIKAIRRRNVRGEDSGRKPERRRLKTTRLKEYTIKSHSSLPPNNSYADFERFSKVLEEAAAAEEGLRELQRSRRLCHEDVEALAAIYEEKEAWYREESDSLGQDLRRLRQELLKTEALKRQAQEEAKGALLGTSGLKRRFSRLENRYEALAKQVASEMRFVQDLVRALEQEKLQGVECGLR

ΔTm 22 (JNK3): 3.3 °C
ΔTm 22 (DMPK1): -1.7 °C
ΔTm 22 (DAPK3): 2.4 °C
ΔTm 22 (EphA5): 4.1 °C
ΔTm 22 (NEK1): -2.0 °C
ΔTm 22 (CDKL1): 0.4 °C
ΔTm 22 (BRAF): 6.3 °C
ΔTm 22 (MST2): 8.0 °C
ΔTm 22 (MST4): 7.8 °C
SMILES: CNc1ncc2cc(-c3ccc(-c4cccc(C)n4)cc3Cl)c(=O)n(CCC3CCNCC3)c2n1 [compound 22, 6-(2-Chloro-4-(6-methylpyridin-2-yl)phenyl)-2-(methylamino)-8-(2-(piperidin-4-yl)ethyl)pyrido[2,3-d]pyrimidin-7(8H)-one]

ΔTm MR26 (26) (JNK3): 1.1 °C
ΔTm MR26 (26) (DMPK1): -1.3 °C
ΔTm MR26 (26) (DAPK3): 0.0 °C
ΔTm MR26 (26) (EphA5): 3.5 °C
ΔTm MR26 (26) (NEK1): 0.1 °C
ΔTm MR26 (26) (CDKL1): 0.5 °C
ΔTm MR26 (26) (BRAF): 1.7 °C
ΔTm MR26 (26) (MST2): 7.7 °C
ΔTm MR26 (26) (MST4): 11.2 °C
SMILES: Cc1cccc(-c2ccc(-c3cc4cnc(NCCCN5CCOCC5)nc4n(CCCCN)c3=O)c(Cl)c2)n1 [compound 26, MR26]

Second part, the compound before the results:

SMILES: CNc1ncc2cc(-c3ccc(-c4cccc(C)n4)cc3Cl)c(=O)n(CCCCN)c2n1 [compound 20, MRLW5]
ΔTm MRLW5 (20) (JNK3): 1.3 °C
ΔTm MRLW5 (20) (DMPK1): 0.8 °C
ΔTm MRLW5 (20) (DAPK3): 1.4 °C
ΔTm MRLW5 (20) (EphA5): 3.3 °C
ΔTm MRLW5 (20) (NEK1): -1.9 °C
ΔTm MRLW5 (20) (CDKL1): -0.1 °C
ΔTm MRLW5 (20) (BRAF): 4.1 °C
ΔTm MRLW5 (20) (MST2): 7.9 °C
ΔTm MRLW5 (20) (MST4): 11.4 °C

SMILES: Cc1cccc(-c2ccc(-c3cc4cnc(NCCCc5ccc(N)cc5)nc4n(CCCCN)c3=O)c(Cl)c2)n1 [compound 25, 8-(4-Aminobutyl)-2-((3-(4-aminophenyl)propyl)amino)-6-(2-chloro-4-(6-methylpyridin-2-yl)phenyl)pyrido[2,3-d]pyrimidin-7(8H)-one]
ΔTm 25 (JNK3): 3.2 °C
ΔTm 25 (DMPK1): -2.7 °C
ΔTm 25 (DAPK3): 0.8 °C
ΔTm 25 (EphA5): 3.2 °C
ΔTm 25 (NEK1): -1.2 °C
ΔTm 25 (CDKL1): 2.1 °C
ΔTm 25 (BRAF): 5.2 °C
ΔTm 25 (MST2): 9.4 °C
ΔTm 25 (MST4): 9.6 °C

SMILES: CNc1ncc2cc(-c3ccc(-c4cccc(C)n4)cc3Cl)c(=O)n(C[C@H]3CC[C@H](N)CC3)c2n1 [compound 23, 23]
ΔTm 23 (JNK3): 1.3 °C
ΔTm 23 (DMPK1): -2.8 °C
ΔTm 23 (DAPK3): 2.8 °C
ΔTm 23 (EphA5): 4.0 °C
ΔTm 23 (NEK1): -2.7 °C
ΔTm 23 (CDKL1): 0.1 °C
ΔTm 23 (BRAF): 6.2 °C
ΔTm 23 (MST2): 10.8 °C
ΔTm 23 (MST4): 8.2 °C

SMILES: Cc1cccc(-c2ccc(-c3cc4cnc(NC(CO)CO)nc4n(CCCCN)c3=O)c(Cl)c2)n1 [compound 24, 8-(4-Aminobutyl)-6-(2-chloro-4-(6-methylpyridin-2-yl)phenyl)-2-((1,3-dihydroxypropan-2-yl)amino)pyrido[2,3-d]pyrimidin-7(8H)-one]
ΔTm MR24 (24) (JNK3): 3.7 °C
ΔTm MR24 (24) (DMPK1): -1.3 °C
ΔTm MR24 (24) (DAPK3): 0.2 °C
ΔTm MR24 (24) (EphA5): -0.4 °C
ΔTm MR24 (24) (NEK1): 0.0 °C
ΔTm MR24 (24) (CDKL1): 0.9 °C
ΔTm MR24 (24) (BRAF): 1.2 °C
ΔTm MR24 (24) (MST2): 4.9 °C
ΔTm MR24 (24) (MST4): 9.1 °C
